Measured values published in US11998549B2, “Methods of treating a vascular leakage-associated disease or disorder” (UNITY HEALTH TORONTO, priority 2019, dated 2024).

Legend:
[1] = test system: LPS induced zebrafish sepsis model; assay: Survival in LPS induced zebrafish sepsis model; format: in vivo; conditions: 24 h
Description: An LPS induced zebrafish sepsis model which mimics the hallmarks of human sepsis was developed (Philip et al., 2017). Zebrafish show varied susceptibility and responsiveness to LPS from different bacterial strains. Exposure of zebrafish larvae at 3 days post-fertilization (dpf) to two types of LPS (LPS from Escherichia coli 0111:B4 (Sigma) at 100 μg/ml for 5-6 hrs; or LPS from Salmonella at 27 μg/ml for 24 hrs) were both effective in inducing tail fin swelling, increased ROS production, increased vascular leakage and increased mortality.
Survival analyses for zebrafish (wildtype) exposed to various concentrations of LPS (Escherichia coli 0111:B4; Sigma) was performed. 3 dpf larvae were exposed to LPS by immersion technique. Larvae were treated with 10, 25, 50, 125, 250, 500, 1000, 2500, 5000 or 10000 nM UNC0642 along with 100 μg/ml LPS (LPS was dissolved in eggwater), by static immersion at 28.5° C. for 24 h in a total volume of 2 mL per treatment. Control larvae were exposed to egg water. Survival numbers were recorded and EC50s calculated.
3 dpf larvae were exposed to LPS by immersion technique. […] Control larvae were exposed to egg water. Survival numbers were recorded and EC50s calculated. The percentage (%) of embryos showing vascular leakage was also recorded and 1050s calculated.

[2] = test system: LPS-induced ROS production; assay: ROS production (DCFH-DA) in LPS-treated zebrafish larvae; format: in vivo; conditions: LPS 100 μg/ml + 1 μM UNC0642, 5 h
Description: ROS production was visualised using 2′, 7′-dichlorodihydrofluorescein diacetate (DCFH-DA; Sigma-Aldrich), a ROS indicator. Wildtype zebrafish were exposed to Vehicle, LPS (100 μg/ml) or LPS+1 μM UNC0642 by static immersion for 5 h at 28.5° C. and then incubated along with 100 μM DCFH-DA for 1 h at 28.5° C. in the dark, and washed three times (5 min each) with embryo water. DCFH-DA diffuses into cells and is deacetylated by cellular esterases to non-fluorescent 2′, 7′-Dichlorodihydrofluorescin (DCFH), which is rapidly oxidized to highly fluorescent 2′, 7′-Dichlorofluorescein (DCF) by ROS. The fluorescence intensity is propor-tional to the ROS levels within the cell cytosol. Photographs were acquired using a Leica DFC 300-FX camera and a Leica fluorescence microscope, and were processed with Fiji analysis software. Corrected total fluorescence (CTF) was calculated using the following formula: CTF=Integrated density−(Area of selected cell×Mean fluorescence of background readings) H3K9me2 Immunofluorescence Analysis

[3] = test system: human pulmonary microvascular endothelial cells (HPMECs); assay: FITC dextran permeability assay in HPMEC monolayer; format: cell-based; conditions: FITC-conjugated dextran
Text: Cultured endothelial cells are used to model the microvascular endothelium, because of the feasibility of performing complex molecular or pharmacological experiments to study cellular signalling pathways related to barrier function and integrity. In addition, the lung is the organ most often affected by sepsis induced-MODS. To determine the functional significance of G9a inhibition in human cells, solute permeability and electrical resistance across a confluent human pulmonary microvascular endothelial cell (HPMEC) monolayer was assessed. For both experiments HPMECs were seeded on 0.4 μm-pore polyester transwells (Costar) coated with Attachment Factor (Invitrogen), grown to confluency, and then […] with either UNC0462 or vehicle control.
FITC fluorescence was be measured at different time intervals in samples taken from the bottom compartment as a measure of paracellular dextran leak.

[4] = test system: cellular junction protein transcript levels; assay: Quantitative RT-PCR of cellular junction proteins in zebrafish sepsis model; format: in vivo; conditions: 3 dpf larvae, LPS 27 μg/ml (Salmonella) + 1 μM UNC0642, 24 h
Text: Quantitative reverse transcription polymerase chain reaction (RT-PCR) was used to assess relative expression of cytokines (an average of 3 trials, each trial with a pool of 20 larvae/treatment) and cellular junction proteins (an average of 3 trials, each trial with a pool of 20 larvae/treatment), using elongation factor 1 a (EF1a) as the housekeeping gene control. […] UNC0642 reverses LPS induced reduction in the transcript levels of cellular junction proteins, namely occludin a, occludin b and ZO-1. UNC0642 also upregulates cellular junction protein transcript levels of occludin b, claudin 5a, claudin 5b and claudin 2, potentially improving vascular stability.
RNA extraction and cDNA synthesis. Wildtype zebrafish larvae (3 dpf) were exposed to Vehicle, LPS (27 μg/ml; LPS from Salmonella) or LPS+1 μM UNC0642 by static immersion for 24 h. Total RNA was extracted from these larvae (pool of 20 larvae/treatment) using the RNeasy extraction kit (Qiagen™, Mississauga, Ontario, Canada) and treated with DNase. The concentration of total RNA was determined spectrophotometrically at 260/280 nm using a NanoDrop™ spectrophotometer. […]
PCR conditions. […] The primers are not listed, since suitable primers will be readily apparent to the skilled person.

[5] = test system: human umbilical vein endothelial cells (HUVECs); assay: FITC dextran leakage assay in HUVEC monolayer; format: cell-based; conditions: HUVEC on transwell, LPS 1 μg/ml + UNC0642 2.5 nM
Description: To determine the functional significance of G9a inhibition in human cells, solute permeability and electrical resistance across a confluent HUVEC monolayer was assessed. For both experiments, HUVEC were seeded at 1×10^6 cells/ml on Matrigel™ coated 3-μm pore size transwell inserts in 24-well plates from BD Discovery Labware™ (catalog number 354575) and grown to confluency. The cells were then treated with either the vehicle, LPS (1 μg/ml) or LPS (1 μg/ml)+UNC0642 (2.5 nM).
Assessment of Paracellular Permeability: Dextran sulfate-FITC (3 kD, Invitrogen™ Molecular Probes catalog number D-3306) was added to the lower chamber to a final concentration of 10 μg/ml. Simultaneously, the different treatment conditions mentioned above were added to the lower chamber. FITC fluorescence was measured at different time intervals (0 h, 1.5 h, 2.5 h, 24 h) in samples taken from the top chamber as a measure of paracellular dextran leak. […] (FIG. 11, Panel A)

COc1cc2c(NC3CCN(C(C)C)CC3)nc(N3CCC(F)(F)CC3)nc2cc1OCCCN1CCCC1 [UNC0642, 2-(4,4-Difluoropiperidin-1-yl)-6-methoxy-N-[1-(propan-2-yl)piperidin-4-yl]-7-(3-(pyrrolidin-1-yl)propoxy]quinazolin-4-amine]
EC50 ([1]; Escherichia coli, in Danio rerio, read-out: EC50 for improved survival of septic zebrafish larvae): 789 nM
Rescue of sepsis-associated mortality ([1]; comparison of UNC0642 and A366, zebrafish larvae, 27 μg/ml LPS): able to rescue
Reduction of LPS-induced ROS production [2]: 40%
LPS-induced endothelial barrier dysfunction (increased dextran leakage) [3]: significantly mitigate
LPS induced reduction in transcript levels of occludin a, occludin b and ZO-1 [4]: reverses
Transcript levels of occludin b, claudin 5a, claudin 5b and claudin 2 [4]: upregulates
LPS induced vessel permeability (FITC dextran leakage) [5]: protects against LPS induced vessel permeability
